Measurements: patent US20090203644A1, “Compositions for treating and/or preventing diseases characterized by the presence of metal ions” (GrenPharma LLC, priority 2004, published 2009)
Entries after “also recorded” stand apart in the source; their conditions may differ. Counter-ions that a name gives are not always drawn. Like-named read-outs stand apart in the source and are kept apart here.

Assays:
Caco-2 cells [1] = settings: Caco-2
NF-M17 = target: T1, NF-M17 (Homo sapiens, UniProt P07197); assay: CD titration: restoration of the CD spectrum of NF-M17 exposed to aluminum; assay type: biochemical
T1 construct: a seventeen amino acid region of the human neurofilament mid-sized subunit protein, NF-M17; host or cells: chemical synthesis

A-beta peptide = system: A-beta peptide; design: species or system human
A-beta peptide fragment = A-beta peptide fragment (Homo sapiens, UniProt P05067); assay: CD helix-coil reversal and pretreatment experiments (Example 11); assay type: biochemical
A-beta peptide fragment, sequence (P05067 672-713): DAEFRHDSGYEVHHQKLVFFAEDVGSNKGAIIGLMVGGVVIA

A-beta1-42 peptide [2] = target: T2, A-beta1-42 peptide (Homo sapiens, UniProt P05067); assay: CD: reversal of the aluminum effect on the A-beta1-42 peptide spectrum (Example 3); assay type: biochemical
T2 sequence (P05067 672-713): as above

[3] = target: peptide 1 (A-beta1-42 peptide) (Homo sapiens, UniProt P05067); assay type: biochemical
peptide 1 (A-beta1-42 peptide), sequence (P05067 672-713): as above

A-beta antigen = system: A-beta antigen; design: species or system human
Caco-2 cells [4] = system: Caco-2 cells
A-beta1-42 peptide [5] = target: T2, A-beta1-42 peptide; assay type: biochemical

C[Si](Cl)(Cl)CC[Si](C)(Cl)Cl [1,2-(methyldichlorosilyl)ethane]
permeation across Caco-2 cells compared with mannitol (Caco-2 cells [1]): at least four times greater

NCCC[Si](O)(O)O [APST, 3-aminopropylsilantriol]
Restore original spectra? (NF-M17): Yes | chelation of aluminum compared to sodium orthosilicate (NF-M17): improved chelation of aluminum

CC[Si](O)(CC)Cc1ccccc1 [BDS, benzyldiethylsilanol]
Restore original spectra? (NF-M17): did not restore and No

CCC(C#N)C[Si](C)(Cl)Cl (centres unmarked) [CBMS, 2-cyanobutylmethyldichlorosilane]
total extracted (A-beta peptide): 3.6 fmol | Permeation Coefficient (cm/sec) Mean ± SD, where applicable (Caco-2 cells [1]; human): 6.5e-06 cm/s | Total Permeation Coefficient (cm/sec) Mean ± SD, where applicable, Caco-2 (Caco-2 cells [1]; human): 6.5e-06 cm/s | recovery of helicity in Al-denatured peptide / reversal of aluminum-induced denaturation (CD) (A-beta peptide fragment): appeared to reverse aluminum-induced denaturation | Total Permeation Coefficient (cm/sec) Mean ± SD, where applicable, MDCK (MDCK cells; dog): 1.5e-06 cm/s

CC(C#N)C[Si](C)(Cl)Cl (centres unmarked) [CPMS, 2-cyanopropylmethyldichlorosilane]
total extracted (A-beta peptide): 5.3 fmol | permeation across Caco-2 cells compared with mannitol (Caco-2 cells [1]): approximately three times more efficiently | Permeation Coefficient (cm/sec) Mean ± SD, where applicable (Caco-2 cells [1]; human): 6.1 ± 1.7 × 10^−6 cm/sec | Total Permeation Coefficient (cm/sec) Mean ± SD, where applicable, Caco-2 (Caco-2 cells [1]; human): 6.1 ± 1.7 × 10^−6 cm/sec | recovery of helicity in Al-denatured peptide / reversal of aluminum-induced denaturation (CD) (A-beta peptide fragment): appeared to reverse aluminum-induced denaturation | Total Permeation Coefficient (cm/sec) Mean ± SD, where applicable, MDCK (MDCK cells; dog): 1.2e-06 cm/s

N#CCCC[Si](Cl)(Cl)Cl [CPTCS, 3-cyanopropyltrichlorosilane]
restoration of the original CD spectrum of the peptide after exposure to aluminum (A-beta1-42 peptide [2]): able to restore the CD spectrum | reversal of the effects of aluminum on the CD spectrum of the peptide (A-beta1-42 peptide [2]): Moderate reversal; also recorded: almost full reversal | Restore original spectra? (NF-M17): Yes | equivalents at which the CD spectrum of NF-M17/aluminum is restored to (similar to) its original shape (NF-M17): around 32 equivalents

CC[Si](Cl)(Cl)CC [DCDES, dichlorodiethylsilane]
restoration of the original CD spectrum of the peptide after exposure to aluminum (A-beta1-42 peptide [2]): at least partially restored | Restore original spectra? (NF-M17): Yes | equivalents at which the CD spectrum of NF-M17/aluminum is restored to (similar to) its original shape (NF-M17): around 32 equivalents

CC(C)[Si](Cl)(Cl)C(C)C [DCDIPS, dichlorodiisopropylsilane]
restoration of the original CD spectrum of the peptide after exposure to aluminum (A-beta1-42 peptide [2]): at least partially restored | Restore original spectra? (NF-M17): Yes | equivalents at which the CD spectrum of NF-M17/aluminum is restored to (similar to) its original shape (NF-M17): around 32 equivalents

O[Si](O)(c1ccccc1)c1ccccc1 [DPSD, diphenylsilandiol]
Restore original spectra? (NF-M17; CD spectrum of NF-M17 with 8 equivalents of aluminum, titration up to 32 equivalents): did not restore; also recorded: (DMSO interfered with spectra)

Cl [HCl, hydrochloric acid, reference compound]
reversal of / protection from metal-induced loss of helix in TFE solutions (CD) (A-beta peptide fragment; polyvalent metal ions as perchlorate salts): can reverse the loss of helix | reversing the metal-induced helix-coil transition ([3]; acid, product of hydrolysis of chlorosilanes): itself effective for reversing the helix-coil transition | Total Extracted (fmol) (A-beta antigen): no detectable antigen

CCCCCC[Si](C)(Cl)Cl [HMDS, hexylmethyldichlorosilane]
restoration of the original CD spectrum of the peptide after exposure to aluminum (A-beta1-42 peptide [2]): at least partially restored | Restore original spectra? (NF-M17): Yes | equivalents at which the CD spectrum of NF-M17/aluminum is restored to (similar to) its original shape (NF-M17): around 32 equivalents

C[Si](Cl)(Cl)c1ccccc1 [MPDS, methylphenyldichlorosilane]
Restore original spectra? (NF-M17): Yes | equivalents at which the CD spectrum of NF-M17/aluminum is restored to (similar to) its original shape (NF-M17): around 32 equivalents

CCCCCCCC[Si](Cl)(Cl)Cl [OTCS, n-octyltrichlorosilane]
Restore original spectra? (NF-M17): did not restore; also recorded: (gelation of OTCS)

C1CC[Si]2(CCCCO2)OC1 [SDSU, 1,7-dioxa-6-sila-spiro[5.5]undecane]
restoration of the original CD spectrum of the peptide after exposure to aluminum (A-beta1-42 peptide [2]): at least partially restored | transport across the Caco-2 cells (Caco-2 cells [4]): significant amount of transport

CC(=O)O[Si](OC(C)=O)(OC(C)=O)OC(C)=O [TAS, tetraacetooxysilane]
restoration of the original CD spectrum of the peptide after exposure to aluminum (A-beta1-42 peptide [2]; 8 to 12 equivalents of aluminum): at least partially restored

CC(C)(C)[Si](C)(C)O [TBDMS, tert-butyldimethylsilanol]
Restore original spectra? (NF-M17): did not restore and No

CC[Si](O)(CC)CC [TES, triethylsilanol]
restoration of the original CD spectrum of the peptide after exposure to aluminum (A-beta1-42 peptide [2]): at least partially restored | Restore original spectra? (NF-M17): did not restore and No

[Zn] [Zinc]
effect on the A-beta1-42 CD spectrum (disruption of the alpha helix) (A-beta1-42 peptide [5]): minor or no effects

C[Si](O)(O)CCCC#N [compound 3f, (dihydroxy)methyl(3-cyanopropyl)silane]
recovery of the CD spectrum on titration of iron-complexed peptide 1 [3]: dosage effect is evident, but non-linear | stability, solubility and effectiveness in reversing and/or preventing the effect of metal ion on helix formation [3]: efficient combination of stability, solubility, and effectiveness | titration point showing the greatest degree of recovery [3]: 0.25 eq.

[Fe+2] [iron (II)]
effect on the A-beta1-42 CD spectrum (disruption of the alpha helix) (A-beta1-42 peptide [5]): minor or no effects

CN(C)[Si](N(C)C)(N(C)C)N(C)C [tetrakis, tetrakis(dimethylamino)silane]
restoration of the original CD spectrum of the peptide after exposure to aluminum (A-beta1-42 peptide [2]): at least partially restored

(dichloro)methylsilylbutyronitrile [DCMSBN]
restoration of the original CD spectrum of the peptide after exposure to aluminum (A-beta1-42 peptide [2]): at least partially restored | Restore original spectra? (NF-M17): Yes | equivalents at which the CD spectrum of NF-M17/aluminum is restored to (similar to) its original shape (NF-M17): around 32 equivalents | transport across Caco-2 cells, FIG. 29B compounds compared with FIG. 29A compounds (Caco-2 cells [4]): more transport | transport across the Caco-2 cells (Caco-2 cells [4]): significant amount of transport

Trihydroxysilylmethyl phosphonate
permeation across Caco-2 cells compared with mannitol (Caco-2 cells [1]): slower permeation

dichlorosilacyclobutane [DCSCB]
restoration of the original CD spectrum of the peptide after exposure to aluminum (A-beta1-42 peptide [2]): at least partially restored | transport across the Caco-2 cells (Caco-2 cells [4]): significant amount of transport

sodium metasilicate nonahydrate [reference compound]
equivalents at which some return / beginning of return of the CD curve to its original shape is seen (NF-M17): about 32 equivalents

sodium orthosilicate [reference compound]
restoration of the original CD spectrum of the peptide after exposure to aluminum (A-beta1-42 peptide [2]): at least partially restored | equivalents at which some return / beginning of return of the CD curve to its original shape is seen (NF-M17): 4 equivalents | equivalents at which the CD spectrum of NF-M17/aluminum is restored to (similar to) its original shape (NF-M17): around 16 equivalents

triethoxysilylbutyronitrile
restoration of the original CD spectrum of the peptide after exposure to aluminum (A-beta1-42 peptide [2]): reverses aluminum-induced denaturation | crossing of the epithelial barrier in the Caco-2 model (Caco-2 cells [1]): crossed the epithelial barrier efficiently | permeation across Caco-2 cells compared with mannitol (Caco-2 cells [1]): at least four times greater

triethoxysilylbutyronitrile [TESB]
restoration of the original CD spectrum of the peptide after exposure to aluminum (A-beta1-42 peptide [2]): at least partially restored | transport across Caco-2 cells, FIG. 29B compounds compared with FIG. 29A compounds (Caco-2 cells [4]): more transport | transport across the Caco-2 cells (Caco-2 cells [4]): significant amount of transport | Cell Permeation Coefficient (cm/sec) Caco-2 (Caco-2 cells [1]): 3.7e-05 cm/s | Permeation Coefficient (cm/sec) Mean ± SD, where applicable (Caco-2 cells [1]): 3e-05 cm/s | Total Permeation Coefficient (cm/sec) Mean ± SD, where applicable, Caco-2 (Caco-2 cells [1]): 2.8 ± 1.8 × 10^−5 cm/sec | cell permeation coefficient compared with mannitol, Caco-2 (Caco-2 cells [1]): at least ten times greater | crossing of the epithelial barrier in the Caco-2 model (Caco-2 cells [1]): cross the epithelial barrier relatively efficiently | permeation across Caco-2 cells compared with mannitol (Caco-2 cells [1]): at least ten times greater | recovery of helicity in Al-denatured peptide / reversal of aluminum-induced denaturation (CD) (A-beta peptide fragment): appeared to reverse aluminum-induced denaturation | Cell Permeation Coefficient (cm/sec) MDCK (MDCK cells): 2.7e-05 cm/s | Total Permeation Coefficient (cm/sec) Mean ± SD, where applicable, MDCK (MDCK cells): 2.2 ± 1.4 × 10^−5 cm/sec | cell permeation coefficient compared with mannitol, MDCK (MDCK cells): at least ten times greater | crossing of the epithelial barrier in the MDCK model (MDCK cells): cross the epithelial barrier relatively efficiently | permeation across MDCK cells compared with mannitol (MDCK cells): at least ten times greater

triethoxysilylpropionitrile [TESP]
restoration of the original CD spectrum of the peptide after exposure to aluminum (A-beta1-42 peptide [2]): at least partially restored

trihydroxysilylmethyl phosphonate
crossing of the epithelial barrier in the Caco-2 model (Caco-2 cells [1]): permeated less efficiently

trihydroxysilylmethyl phosphonate [TSMP]
Cell Permeation Coefficient (cm/sec) Caco-2 (Caco-2 cells [1]): 2e-07 cm/s | Permeation Coefficient (cm/sec) Mean ± SD, where applicable (Caco-2 cells [1]): 1.9 ± 1.5 × 10^−7 cm/sec | Total Permeation Coefficient (cm/sec) Mean ± SD, where applicable, Caco-2 (Caco-2 cells [1]): 1.9 ± 1.5 × 10^−7 cm/sec | permeation across Caco-2 cells compared with mannitol (Caco-2 cells [1]): slower permeation | Cell Permeation Coefficient (cm/sec) MDCK (MDCK cells): 5.4e-07 cm/s | Total Permeation Coefficient (cm/sec) Mean ± SD, where applicable, MDCK (MDCK cells): 5.2 ± 7.0 × 10^−7 cm/sec | permeation across MDCK cells compared with mannitol (MDCK cells): slower permeation
